Laboratory results published in publication PMC8343220, “The selectivity of α‐adrenoceptor agonists for the human α1A, α1B, and α1D‐adrenoceptors” (Pharmacology Research & Perspectives, 2021).
Read-outs that look alike come from different tables or passages of the source.

Key:
[1] = system: parental CHO cell line without any transfected receptors; experiment: ERK1/2‐phosphorylation, parent CHO cells without transfected receptors; format: cell-based, Chinese hamster; conditions: CHO cells without transfected receptors, mean ± s.e.m.
human α1B‐adrenoceptor [2] = target: T1, human α1B‐adrenoceptor (Homo sapiens, UniProt P35368); experiment: ^3H‐cAMP accumulation in the presence of 10 μM forskolin, CHO‐α1B cells; format: cell-based; conditions: CHO‐α1B cells
T1 construct: expressed in transfected cells; host or cells: CHO-K1
T1 sequence (P35368 1-520): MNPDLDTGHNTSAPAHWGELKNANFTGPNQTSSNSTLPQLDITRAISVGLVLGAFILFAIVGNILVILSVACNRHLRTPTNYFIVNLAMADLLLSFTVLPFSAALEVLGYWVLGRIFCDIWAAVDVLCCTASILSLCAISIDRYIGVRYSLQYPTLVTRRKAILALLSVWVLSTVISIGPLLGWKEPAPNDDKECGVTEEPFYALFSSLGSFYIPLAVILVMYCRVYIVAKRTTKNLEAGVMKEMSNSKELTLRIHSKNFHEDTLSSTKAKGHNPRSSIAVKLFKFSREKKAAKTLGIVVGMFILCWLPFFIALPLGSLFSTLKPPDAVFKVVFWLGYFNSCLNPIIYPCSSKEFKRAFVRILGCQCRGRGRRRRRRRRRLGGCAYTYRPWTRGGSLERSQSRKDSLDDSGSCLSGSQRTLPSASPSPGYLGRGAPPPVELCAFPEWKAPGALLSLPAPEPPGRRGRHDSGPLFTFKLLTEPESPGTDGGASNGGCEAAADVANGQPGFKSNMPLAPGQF

human α1B‐adrenoceptor [3] = target: T1, human α1B‐adrenoceptor; experiment: ^3H‐cAMP accumulation, CHO‐α1B cells; format: cell-based; conditions: CHO‐α1B cells; for cAMP accumulation % forskolin: % forskolin maximum response
human α1A‐adrenoceptor [4] = target: T2, human α1A‐adrenoceptor (Homo sapiens, UniProt P35348); experiment: ^3H‐prazosin whole‐cell radioligand binding, CHO‐α1A cells
T2 construct: expressed in transfected cells; host or cells: CHO-K1
T2 sequence (P35348 1-466): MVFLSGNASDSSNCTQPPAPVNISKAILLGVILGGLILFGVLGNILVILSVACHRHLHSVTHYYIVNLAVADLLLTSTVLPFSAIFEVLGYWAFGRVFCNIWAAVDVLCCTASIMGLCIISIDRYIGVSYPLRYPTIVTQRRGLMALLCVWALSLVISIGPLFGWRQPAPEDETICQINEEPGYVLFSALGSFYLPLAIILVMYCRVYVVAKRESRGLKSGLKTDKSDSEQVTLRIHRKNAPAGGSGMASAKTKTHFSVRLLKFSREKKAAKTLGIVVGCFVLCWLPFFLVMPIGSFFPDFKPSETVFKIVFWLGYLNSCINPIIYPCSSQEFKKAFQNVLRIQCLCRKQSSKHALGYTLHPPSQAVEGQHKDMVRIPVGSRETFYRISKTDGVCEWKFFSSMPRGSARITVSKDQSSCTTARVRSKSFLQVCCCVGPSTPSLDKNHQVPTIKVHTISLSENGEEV

[5] = target: T3, human α1D‐adrenoceptor (full length) (Homo sapiens, UniProt P25100); experiment: ^3H‐prazosin whole‐cell radioligand binding, CHO‐α1D cells; conditions: for Kd: CHO‐α1D cells
T3 construct: human α1D‐adrenoceptor (full length) were used; expressed in transfected cells; host or cells: CHO-K1
T3 sequence (P25100 1-572): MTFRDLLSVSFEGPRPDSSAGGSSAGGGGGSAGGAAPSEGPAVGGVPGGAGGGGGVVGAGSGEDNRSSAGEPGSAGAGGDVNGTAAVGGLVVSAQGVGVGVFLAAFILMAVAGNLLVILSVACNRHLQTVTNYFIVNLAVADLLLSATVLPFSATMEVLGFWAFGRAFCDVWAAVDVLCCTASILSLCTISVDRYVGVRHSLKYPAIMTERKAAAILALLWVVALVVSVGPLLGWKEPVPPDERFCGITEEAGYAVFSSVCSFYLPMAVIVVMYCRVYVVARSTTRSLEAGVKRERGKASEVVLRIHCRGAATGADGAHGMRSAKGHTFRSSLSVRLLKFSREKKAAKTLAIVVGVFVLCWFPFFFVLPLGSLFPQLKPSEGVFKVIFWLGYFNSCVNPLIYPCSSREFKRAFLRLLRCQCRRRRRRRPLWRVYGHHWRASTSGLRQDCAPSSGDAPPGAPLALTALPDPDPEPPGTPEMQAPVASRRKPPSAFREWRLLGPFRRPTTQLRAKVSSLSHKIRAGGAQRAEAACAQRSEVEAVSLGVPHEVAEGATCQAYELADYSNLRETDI

human α1A‐adrenoceptor [6] = target: T2, human α1A‐adrenoceptor; experiment: ^3H‐cAMP accumulation in the presence of 10 μM forskolin, CHO‐α1A cells; format: cell-based; conditions: CHO‐α1A cells
[7] = system: parental CHO cell line without any transfected receptors; experiment: Forskolin‐stimulated cAMP accumulation, parent CHO cells without transfected receptors; format: cell-based, Chinese hamster; conditions: CHO cells without transfected receptors; in presence of forskolin
human α1A‐adrenoceptor [8] = target: T2, human α1A‐adrenoceptor; experiment: Intracellular free calcium mobilization, CHO‐α1A cells; format: cell-based
human α1B‐adrenoceptor [9] = target: T1, human α1B‐adrenoceptor; experiment: Intracellular free calcium mobilization, CHO‐α1B cells; format: cell-based
[10] = target: T3, human α1D‐adrenoceptor (full length); experiment: Intracellular free calcium mobilization, CHO‐α1D cells; format: cell-based
human α1A‐adrenoceptor [11] = target: T2, human α1A‐adrenoceptor; experiment: ERK1/2‐phosphorylation (Surefire Alphascreen), CHO‐α1A cells; format: cell-based
human α1A‐adrenoceptor [12] = target: T2, human α1A‐adrenoceptor; experiment: ^3H‐cAMP accumulation, CHO‐α1A cells; format: cell-based; conditions: CHO‐α1A cells
human α1B‐adrenoceptor [13] = target: T1, human α1B‐adrenoceptor; experiment: ERK1/2‐phosphorylation (Surefire Alphascreen), CHO‐α1B cells; format: cell-based
[14] = target: T3, human α1D‐adrenoceptor (full length); experiment: ERK1/2‐phosphorylation (Surefire Alphascreen), CHO‐α1D cells; format: cell-based
human α1B‐adrenoceptor [15] = target: T1, human α1B‐adrenoceptor; experiment: ^3H‐prazosin whole‐cell radioligand binding, CHO‐α1B cells; conditions: for Kd: CHO‐α1B cells
[16] = fold increase of the forskolin response
[17] = CHO‐α1D cells, log values given negative

## Brc1c(NC2=NCCN2)ccc2nccnc12 [UK14304]
[1]; maximal response as % of PDBu (10μM) response
  ERK1/2-phosphorylation % PDBu: No response
[1]
  ERK1/2-phosphorylation Log EC50: No response
Human α1B‐adrenoceptor [2]; [16]
  cAMP accumulation (in presence of forskolin) Fold increase: 1.50 ± 0.05 fold
Human α1B‐adrenoceptor [2]; in presence of forskolin, read-out: cAMP accumulation (in presence of forskolin) Log EC50 (converted)
  EC50: 97.7 nM
Human α1B‐adrenoceptor [3]
  cAMP accumulation % forskolin: 2.7 ± 0.1%
Human α1B‐adrenoceptor [3]; read-out: cAMP accumulation Log EC50 (converted)
  EC50: 95.5 nM
Human α1A‐adrenoceptor [4]
  Affinity selectivity ratio α1A vs α1B: 4.4 fold
  Affinity selectivity ratio α1A vs α1D: 1.5 fold
Human α1A‐adrenoceptor [4]; Log KD α1A, ^3H‐prazosin whole cell binding, CHO‐α1A cells, given as log KD (negative), mean ± SEM
  Kd: 2950 nM
[5]
  Affinity selectivity ratio α1B vs α1D: 3.0 fold
[5]; 3H‐prazosin binding Log KD, whole‐cell binding (from Table 1), log values given negative
  Kd: 4370 nM
[5]; Log KD α1D, ^3H‐prazosin whole cell binding, given as log KD (negative), mean ± SEM, 'early plateau' = specific binding not fully inhibited
  Kd: 4370 nM
Human α1A‐adrenoceptor [6]; 10 μM forskolin, read-out: cAMP accumulation (in presence of forskolin) Log EC50 (converted)
  EC50: 1380 nM
Human α1A‐adrenoceptor [6]; [16]
  cAMP accumulation (in presence of forskolin) Fold increase: 1.95 ± 0.09 fold
[7]
  cAMP accumulation (in presence of forskolin) Log EC50: No response
Human α1A‐adrenoceptor [8]
  Intracellular calcium release % ionomycin: 45.6 ± 1.6%
  Log efficacy ratio KD /EC50: 1.64
Human α1A‐adrenoceptor [8]; CHO‐α1A cells, given as log EC50 (negative), read-out: Intracellular calcium release Log EC50 (converted)
  EC50: 67.6 nM
Human α1B‐adrenoceptor [9]
  Intracellular calcium release % ionomycin: 27.5 ± 1.8%
  Log efficacy ratio KD /EC50: 2.26
Human α1B‐adrenoceptor [9]; CHO‐α1B cells, given as log EC50 (negative numbers), read-out: Intracellular calcium release Log EC50 (converted)
  EC50: 70.8 nM
[10]
  Intracellular calcium release % ionomycin: No response
[10]; [17]
  Intracellular calcium release Log EC50: No response
Human α1A‐adrenoceptor [11]
  ERK1/2‐phosphorylation % PDBu: 88.7 ± 4.3%
Human α1A‐adrenoceptor [11]; CHO‐α1A cells, 2–4 min, ^a bi‐phasic: initial stimulatory part, ^b also active in parent CHO cells, read-out: ERK1/2‐phosphorylation Log EC50 (converted)
  EC50: 186 nM
Human α1A‐adrenoceptor [12]; response at 10 μM ligand, no EC50 obtained
  cAMP accumulation % forskolin at 10 μM: 12.0 ± 1.1%
Human α1B‐adrenoceptor [13]
  ERK1/2‐phosphorylation % PDBu: 33.8 ± 5.0%
Human α1B‐adrenoceptor [13]; CHO‐α1B cells, for bi‐phasic responses the initial stimulatory part, read-out: ERK1/2‐phosphorylation Log EC50 (converted)
  EC50: 316 nM
[14]
  ERK1/2‐phosphorylation % PDBu: No response
[14]; [17]
  ERK1/2‐phosphorylation Log EC50: No response
Human α1B‐adrenoceptor [15]; Log KD α1B, ^3H‐prazosin whole cell binding, given as log KD (negative), mean ± SEM
  Kd: 12900 nM
Human α1B‐adrenoceptor [15]; Log KD, ^3H‐prazosin binding, whole‐cell binding (from Table 1), given as log KD (negative numbers)
  Kd: 12900 nM

## Nc1cc(Cl)c(N=C2NCCN2)c(Cl)c1 [para‐amino‐clonidine]
Human α1B‐adrenoceptor [2]; in presence of forskolin
  cAMP accumulation (in presence of forskolin) Log EC50: −7.31 ± 0.11
Human α1B‐adrenoceptor [3]
  cAMP accumulation Log EC50: −7.48 ± 0.43
  cAMP accumulation % forskolin: 2.5 ± 0.6%
Human α1A‐adrenoceptor [4]
  Log KD α1A, ^3H‐prazosin whole cell binding: −6.23 ± 0.03
[5]
  3H‐prazosin binding Log KD: −5.39
  Log KD α1D, ^3H‐prazosin whole cell binding: −5.39 ± 0.16
Human α1A‐adrenoceptor [6]; 10 μM forskolin
  cAMP accumulation (in presence of forskolin) Log EC50: −7.36 ± 0.05
Human α1A‐adrenoceptor [8]
  Intracellular calcium release % ionomycin: 52.0 ± 2.8%
  Intracellular calcium release Log EC50: −8.70 ± 0.09
Human α1B‐adrenoceptor [9]
  Intracellular calcium release % ionomycin: 33.7 ± 2.4%
  Intracellular calcium release Log EC50: −7.79 ± 0.05
[10]
  Intracellular calcium release % ionomycin: No response
  Intracellular calcium release Log EC50: No response
Human α1A‐adrenoceptor [11]
  ERK1/2‐phosphorylation % PDBu: 84.5 ± 4.9%
Human α1A‐adrenoceptor [12]; 5 h
  cAMP accumulation Log EC50: −6.76 ± 0.03
Human α1A‐adrenoceptor [12]; % of 10 µM forskolin response
  cAMP accumulation % forskolin: 26.6 ± 3.2%
Human α1B‐adrenoceptor [13]
  ERK1/2‐phosphorylation % PDBu: 32.8 ± 6.9%
[14]
  ERK1/2‐phosphorylation % PDBu: No response
Human α1B‐adrenoceptor [15]
  Log KD α1B, ^3H‐prazosin whole cell binding: −5.17 ± 0.06
  Log KD, ^3H‐prazosin binding: −5.17
